Laboratory results: patent US9440984B2, “Pyrrolotriazines as ALK inhibitors” (Cephalon, Inc., priority 2013, dated 2016)
Like-named read-outs stand apart in the source and are kept apart here. Each block holds one compound with its values, some of them ahead of it.

Columns and labels:
[1] = target: T1, ALK (Homo sapiens, UniProt Q9UM73); test: ALK autophosphorylation enzyme assay; format: biochemical
Target sequence in this assay (Q9UM73 19-1620): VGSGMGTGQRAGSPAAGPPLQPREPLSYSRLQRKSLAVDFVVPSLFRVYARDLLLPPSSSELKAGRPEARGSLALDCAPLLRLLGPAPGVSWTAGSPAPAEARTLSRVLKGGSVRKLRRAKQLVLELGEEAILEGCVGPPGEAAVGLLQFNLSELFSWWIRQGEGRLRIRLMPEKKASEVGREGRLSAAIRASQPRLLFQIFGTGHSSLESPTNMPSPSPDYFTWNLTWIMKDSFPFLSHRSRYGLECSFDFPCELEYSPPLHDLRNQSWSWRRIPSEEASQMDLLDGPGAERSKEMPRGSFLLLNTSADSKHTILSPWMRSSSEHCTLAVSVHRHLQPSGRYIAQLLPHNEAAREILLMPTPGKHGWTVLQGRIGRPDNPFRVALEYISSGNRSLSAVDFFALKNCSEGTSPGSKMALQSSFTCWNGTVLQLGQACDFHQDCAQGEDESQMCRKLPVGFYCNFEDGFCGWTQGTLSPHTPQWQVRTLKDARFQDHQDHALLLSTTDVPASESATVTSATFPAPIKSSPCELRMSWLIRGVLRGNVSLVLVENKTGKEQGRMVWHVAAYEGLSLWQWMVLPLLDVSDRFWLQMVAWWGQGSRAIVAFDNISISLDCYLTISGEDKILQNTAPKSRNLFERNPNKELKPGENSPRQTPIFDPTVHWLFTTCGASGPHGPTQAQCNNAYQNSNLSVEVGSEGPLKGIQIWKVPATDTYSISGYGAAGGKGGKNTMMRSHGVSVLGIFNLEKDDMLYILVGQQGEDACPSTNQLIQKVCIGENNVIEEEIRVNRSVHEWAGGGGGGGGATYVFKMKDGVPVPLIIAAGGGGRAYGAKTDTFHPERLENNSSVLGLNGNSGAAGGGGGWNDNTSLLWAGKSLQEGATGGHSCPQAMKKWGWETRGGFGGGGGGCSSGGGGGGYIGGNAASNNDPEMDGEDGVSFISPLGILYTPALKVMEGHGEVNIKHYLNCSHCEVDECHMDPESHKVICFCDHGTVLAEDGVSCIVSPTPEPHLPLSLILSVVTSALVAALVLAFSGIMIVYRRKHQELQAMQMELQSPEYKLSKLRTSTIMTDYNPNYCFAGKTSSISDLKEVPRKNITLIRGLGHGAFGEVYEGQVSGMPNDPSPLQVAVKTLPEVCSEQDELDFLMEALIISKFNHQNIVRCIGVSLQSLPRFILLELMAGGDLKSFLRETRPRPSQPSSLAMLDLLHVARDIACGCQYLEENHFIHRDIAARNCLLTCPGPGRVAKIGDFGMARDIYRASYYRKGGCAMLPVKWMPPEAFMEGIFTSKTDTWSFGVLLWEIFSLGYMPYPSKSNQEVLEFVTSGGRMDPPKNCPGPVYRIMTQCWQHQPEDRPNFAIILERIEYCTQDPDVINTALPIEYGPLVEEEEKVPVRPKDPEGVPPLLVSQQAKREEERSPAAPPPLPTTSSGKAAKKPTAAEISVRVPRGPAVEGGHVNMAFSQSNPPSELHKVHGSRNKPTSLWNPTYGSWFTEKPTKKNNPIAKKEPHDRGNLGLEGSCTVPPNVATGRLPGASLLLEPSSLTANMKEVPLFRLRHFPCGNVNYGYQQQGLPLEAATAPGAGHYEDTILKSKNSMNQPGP

[2] = target: T1, ALK; test: ALK autophosphorylation cellular assay; format: cell-based; conditions: read-out: ALK Cell IC50
Target sequence in this assay (Q9UM73 with tags, fused parts or gaps): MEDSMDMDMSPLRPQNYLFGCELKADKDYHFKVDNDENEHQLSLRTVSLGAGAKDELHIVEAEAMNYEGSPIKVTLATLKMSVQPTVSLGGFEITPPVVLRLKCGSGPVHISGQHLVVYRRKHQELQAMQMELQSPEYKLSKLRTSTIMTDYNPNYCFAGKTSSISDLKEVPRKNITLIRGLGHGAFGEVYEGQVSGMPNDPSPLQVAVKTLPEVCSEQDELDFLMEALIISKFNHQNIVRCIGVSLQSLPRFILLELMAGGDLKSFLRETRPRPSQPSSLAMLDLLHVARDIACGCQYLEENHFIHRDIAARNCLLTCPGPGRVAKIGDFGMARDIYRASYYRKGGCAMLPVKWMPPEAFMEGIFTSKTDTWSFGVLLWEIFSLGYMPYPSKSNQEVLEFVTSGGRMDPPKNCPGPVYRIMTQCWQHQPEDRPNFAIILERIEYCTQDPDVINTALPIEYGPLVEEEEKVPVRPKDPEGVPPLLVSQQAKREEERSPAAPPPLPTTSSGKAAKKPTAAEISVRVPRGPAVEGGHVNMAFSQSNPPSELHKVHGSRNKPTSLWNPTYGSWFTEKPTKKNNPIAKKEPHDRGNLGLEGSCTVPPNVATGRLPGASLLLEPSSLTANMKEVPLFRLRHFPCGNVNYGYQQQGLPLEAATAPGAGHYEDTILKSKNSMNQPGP

[3] = tested on: Sup-M2 ALCL xenografts; format: in vivo; conditions: Scid mice, p.o., 10 days; for anti-tumor efficacy (tumor regression): Sup-M2 xenografts
[4] = PK/PD study: compound levels in plasma and tumor lysates (LC/MS-MS); format: in vivo; conditions: Scid mice, single p.o. 30 mg/kg, 6 h and 16 h post dose
Description: Exponentially growing cells were implanted subcutaneously to the left flank of each mouse. The mice were monitored and when the tumor xenograft volumes reached approximately 300 to 500 mm3, mice received a single oral administration of either vehicle PEG-400 or the compound of interest (e.g., Examples 14, 16, 16a, and/or 16b) formulated in vehicle. At indicated time points postdosing, the mice were sacrificed, the blood was collected and centrifuged, and the plasma was collected. The tumors were excised and disrupted with a hand-held tissue blender in completed FRAK lysis buffer without Triton X-100. After brief sonication, the lysates were cleared by centrifugation, mixed with sample buffer, and subjected to SDS-PAGE for ALK immunoblotting as described above. The individual bands of phospho- and total NPM-ALK were scanned and quantified with the Gel Pro Analyzer software (Media Cybernetics, Inc.). The relative NPM-ALK tyrosine phosphorylation (phospho-NPMALK/NPM-ALK ratio) of each sample at indicated time points was then calculated, with the average value of vehicle-treated sample(s) as 100. The compound levels in plasma and tumor lysates were measured by liquid chromatography/tandem mass spectrometry (LC/MS-MS).

[5] = Rat pharmacokinetic (PK) studies
[6] = Sprague-Dawley rat, i.v., 1 mg/kg
[7] = Sprague-Dawley rat, p.o., 5 mg/kg
[8] = Sprague-Dawley, rat, in vivo, po, 5 mg/kg
[9] = Sprague-Dawley, rat, in vivo, iv, 1 mg/kg

- IC50 [1]: 3.33 nM
- IC50 [2]: 50 nM
SMILES: COCCN1CC[C@@H](c2ccc(Nc3ncc4ccc(-c5ccccc5OC)n4n3)c(OC)c2)[C@@H](O)C1 (racemic) [Example 1, (±)-3,4-cis-1-(2-Methoxy-ethyl)-4-{3-methoxy-4-[7-(2-methoxy-phenyl)-pyrrolo[2,1-f][1,2,4]triazin-2-ylamino]-phenyl}-piperidin-3-ol]

- IC50 [1]: 3 nM
- IC50 [2]: 150 nM
SMILES: COc1cc(C2CCN(CCO)CC2)ccc1Nc1ncc2ccc(-c3ccccc3OC)n2n1 [Example 18, 2-(4-{3-Methoxy-4-[7-(2-methoxy-phenyl)-pyrrolo[2,1-f][1,2,4]triazin-2-ylamino]-phenyl}-piperidin-1-yl)-ethanol]

SMILES: COc1cc([C@H]2CCN(CCO)C[C@@H]2O)ccc1Nc1ncc2ccc(-c3ccccc3OC)n2n1 (single isomer, unassigned) [Example 16b]
- tolerability (body weight loss, overt toxicity) ([3]; 30 mg/kg b.i.d.): well tolerated
- tolerability (body weight loss, overt toxicity) ([3]; 55 mg/kg b.i.d.): well tolerated
- anti-tumor efficacy (tumor regression) ([3]; 30 mg/kg b.i.d.): Complete tumor regressions
- anti-tumor efficacy (tumor regression) ([3]; 55 mg/kg b.i.d.): Complete tumor regressions
- plasma and tumor levels, higher than with Example 16a [4]: 4-10 fold

- IC50 [1]: 25.2 nM
SMILES: COc1cc([C@@H]2CCN(CC(C)(C)O)C[C@H]2F)ccc1Nc1ncc2ccc(-c3cccnc3OC)n2n1 (racemic) [Example 10, (±)-1-(3,4-trans-3-Fluoro-4-{3-methoxy-4-[7-(2-methoxy-pyridin-3-yl)-pyrrolo[2,1-f][1,2,4]triazin-2-ylamino]-phenyl}-piperidin-1-yl)-2-methyl-propan-2-ol]

- IC50 [1]: 14 nM
SMILES: COc1cc([C@@H]2CCNC[C@@H]2O)ccc1Nc1ncc2ccc(-c3cccnc3OC)n2n1 (racemic) [Example 4, (±)-3,4-cis-4-{3-Methoxy-4-[7-(2-methoxy-pyridin-3-yl)-pyrrolo[2,1-f][1,2,4]triazin-2-ylamino]-phenyl}-piperidin-3-ol]

SMILES: COc1cc([C@@H]2CCN(CCO)C[C@@H]2O)ccc1Nc1ncc2ccc(-c3ccccc3OC)n2n1 (racemic) [Example 14, (±)-3,4-cis-1-(2-Hydroxy-ethyl)-4-{3-methoxy-4-[7-(2-methoxy-phenyl)-pyrrolo[2,1-f][1,2,4]triazin-2-ylamino]-phenyl}-piperidin-3-ol]
- AUC0-∞ [5, 6]: 371 ± 6 ng·h/mL
- CL [5, 6]: 46 ± 1 mL/min/kg
- Vd [5, 6]: 9.9 ± 2 L/kg
- t1/2 [5, 6]: 2.5 ± 0.6 h
- AUC0-∞ [5, 7]: 479 ± 83 ng·h/mL
- Cmax [5, 7]: 85 ± 15 ng/mL
- F % [5, 7]: 26 ± 4%
- Tmax [5, 8]: 6 h
- rat PK properties (in words) ([5]; rat): acceptable rat PK properties

SMILES: COc1cc([C@@H]2CCN(CCO)C[C@H]2O)ccc1Nc1ncc2ccc(-c3ccccc3OC)n2n1 (racemic) [Example 16, (±)-3,4-trans-1-(2-Hydroxy-ethyl)-4-{3-methoxy-4-[7-(2-methoxy-phenyl)-pyrrolo[2,1-f][1,2,4]triazin-2-ylamino]-phenyl}-piperidin-3-ol]
- AUC(0-inf) [5, 9]: 459 ± 72 ng·h/mL
- Vd [5, 9]: 10.3 ± 1.3 L/kg
- clearance [5, 9]: 39 ± 7 mL/min/kg
- half-life [5, 9]: 3.2 ± 0.6 h
- AUC(0-inf) [5, 8]: 708 ± 63 ng·h/mL
- Cmax [5, 8]: 97 ± 10 ng/mL
- Tmax [5, 8]: 4 ± 1.2 h
- bioavailability [5, 8]: 31 ± 3%
- rat PK properties (in words) ([5]; rat): acceptable rat PK properties

- IC50 [1]: 5.66 nM
SMILES: COc1cc([C@@H]2CCNC[C@H]2F)ccc1Nc1ncc2ccc(-c3ccccc3OC)n2n1 (racemic) [Example 5, (±)-[4-(3,4-trans-3-Fluoro-piperidin-4-yl)-2-methoxy-phenyl]-[7-(2-methoxy-phenyl)-pyrrolo[2,1-f][1,2,4]triazin-2-yl]-amine]

- IC50 [1]: 13.7 nM
- IC50 [2]: 200 nM
SMILES: COc1cc(C2CCNCC2(F)F)ccc1Nc1ncc2ccc(-c3cccnc3OC)n2n1 (racemic) [Example 12, (±)-[4-(3,3-Difluoro-piperidin-4-yl)-2-methoxy-phenyl]-[7-(2-methoxy-pyridin-3-yl)-pyrrolo[2,1-f][1,2,4]triazin-2-yl]-amine]

- IC50 [1]: 28.2 nM
SMILES: COc1cc(C2CCN(CCO)CC2(F)F)ccc1Nc1ncc2ccc(-c3ccccc3OC)n2n1 (racemic) [Example 9, (±)-2-(3,3-Difluoro-4-{3-methoxy-4-[7-(2-methoxy-phenyl)-pyrrolo[2,1-f][1,2,4]triazin-2-ylamino]-phenyl}-piperidin-1-yl)-ethanol]

- IC50 [1]: 34 nM
SMILES: COc1cc(C2CCN(CCO)CC2(F)F)ccc1Nc1ncc2ccc(-c3cccnc3OC)n2n1 (racemic) [Example 11, (±)-2-(3,3-Difluoro-4-{3-methoxy-4-[7-(2-methoxy-pyridin-3-yl)-pyrrolo[2,1-f][1,2,4]triazin-2-ylamino]-phenyl}-piperidin-1-yl)-ethanol]
